Experimental data: ChEMBL document CHEMBL5230104, “Systemic review on B-RafV600E mutation as potential therapeutic target for the treatment of cancer” (Eur J Med Chem, 2020)
Each block holds one molecule with its values, some of them ahead of it.

Assays:
COLO 205 [1] = experiment: Antiproliferative activity against human COLO 205 cells by CellTiter-Glo Luminescent Cell Viability Assay; type: functional, cell-based
A-375 [2] = experiment: Antiproliferative activity against human A-375 cells by CellTiter-Glo Luminescent Cell Viability Assay; type: functional, cell-based
COLO-829 = experiment: Antiproliferative activity against human COLO-829 cells by CellTiter-Glo Luminescent Cell Viability Assay; type: functional, cell-based
WM 266-4 = experiment: Antiproliferative activity against human WM266-4 cells by CellTiter-Glo Luminescent Cell Viability Assay; type: functional, cell-based
COLO 205 [3] = experiment: Antitumor activity against human COLO 205 cells xenografted in mouse model assessed as tumor growth inhibition at 30 mg/kg/day relative to control; type: functional; parameters: scale not given: the % may be the effect or the level left
CHL-1 = experiment: Antiproliferative activity against human CHL-1 cells harbouring wild type B-Raf by SRB assay; type: functional, cell-based
SK-MEL-2 = experiment: Antiproliferative activity against human SK-MEL-2 cells harbouring wild type B-Raf by SRB assay; type: functional, cell-based
Malme-3M [4] = experiment: Antiproliferative activity against human Malme-3M cells harbouring B-Raf V600E mutant by SRB assay; type: functional, cell-based
A-375 [5] = experiment: Antitumor activity against human A-375 cell xenografted in F344 nude rat model assessed as tumor growth inhibition by measuring T/C ratio at 24.1 mg/kg relative to control; type: functional
A-375 [6] = experiment: Antitumor activity against human A-375 cell xenografted in F344 nude rat model assessed as tumor growth inhibition by measuring T/C ratio at 9.7 mg/kg relative to control; type: functional
HMCB cell line = experiment: Antiproliferative activity against human HMCB cells harbouring wild type B-Raf by SRB assay; type: functional, cell-based
HMV-2 cell line = experiment: Antiproliferative activity against human HMV-2 cells harbouring B-Raf G469V mutant by SRB assay; type: functional, cell-based
A-375 [7] = experiment: Antiproliferative activity against human A-375 cells harbouring B-Raf V600E mutant by SRB assay; type: functional, cell-based
HT-144 = experiment: Antiproliferative activity against human HT-144 cells harbouring B-Raf V600E mutant by SRB assay; type: functional, cell-based
Melanoma cell line = experiment: Antiproliferative activity against human Melanoma cell line; type: functional, cell-based
M14 = experiment: Antiproliferative activity against human M14 cells; type: functional, cell-based
[8] = In vivo inhibition of B-Raf in human A-375 cells xenografted in mouse model assessed as tumor growth inhibition; type: functional, cell-based
A-375 [9] = experiment: Antitumor activity against human A-375 cells xenografted in mouse model assessed as tumor growth inhibition at 50 mg/kg, iv relative to control; type: functional; parameters: scale not given: the % may be the effect or the level left
SK-MEL-28 = experiment: Antiproliferative activity against human SK-MEL-28 cells assessed as inhibition of cell viability; type: functional, cell-based
Malme-3M [10] = experiment: Antiproliferative activity against human Malme-3M cells assessed as inhibition of cell viability; type: functional, cell-based
A-375 [11] = experiment: Antiproliferative activity against human A-375 cells assessed as inhibition of cell viability; type: functional, cell-based
[12] = target: Serine/threonine-protein kinase B-raf (Homo sapiens, UniProt P15056, V600E); experiment: Inhibition of B-Raf V600E mutant (unknown origin)

Structure (SMILES): CCCS(=O)(=O)Nc1ccc(F)c(C(=O)c2c[nH]c3ncc(Cl)cc23)c1F [PLX-4720]
IC50 (COLO 205 [1]): 310 nM | IC50 (A-375 [2]): 500 nM | IC50 (COLO-829): 1700 nM | IC50 (WM 266-4): 1500 nM | Activity (COLO 205 [3]): 90%

Structure (SMILES): OCCn1cc(-c2ccc3c(c2)CC/C3=N/O)c(-c2ccncc2)n1
IC50 [8]: 59 nM

Structure (SMILES): CN(C)CCOc1ccc(-c2n/c(=c3\ccc4c(c3)CCC=4N=O)c(=C3C=CNC=C3)[nH]2)cc1
Activity (A-375 [9]): 80% | IC50 (SK-MEL-28): 120 nM | IC50 (Malme-3M [10]): 150 nM | IC50 (A-375 [11]): 370 nM | IC50 [12]: […]

More lines, main results first:

IC50 (SK-MEL-2): 60 nM | IC50 (A-375 [7]): 160 nM | IC50 (HT-144): 110 nM
Structure (SMILES): N#Cc1c(Oc2ccc(F)c(NC(=O)Cc3cccc(C(F)(F)F)c3)c2)ccc2nc(NC(=O)C3CC3)sc12
IC50 (CHL-1): 2.07 nM | IC50 (Malme-3M [4]): 50 nM | T/C (A-375 [5]): 12.1% | T/C (A-375 [6]): 2.1% | IC50 (HMCB cell line): 350 nM | IC50 (HMV-2 cell line): 200 nM

IC50 (Melanoma cell line): 10000 nM
Structure (SMILES): Cc1ccc(NC(=O)c2cccc(C(C)(C)C#N)c2)cc1Nc1ccc2ncn(C)c(=O)c2c1
IC50 (M14): 100 nM
